Reference: ChEMBL document CHEMBL4043257, “PTP1B inhibitors from the seeds of Iris sanguinea and their insulin mimetic activities via AMPK and ACC phosphorylation” (Bioorg Med Chem Lett, 2017)
Activity calls are given as the source filed them. The calls are words filed in the database; no cut-off is given here.

Key:
[1] = target: T1, Tyrosine-protein phosphatase non-receptor type 1 (Mus musculus) (UniProt P35821); test: Inhibition of PTP1B in differentiated mouse C2C12 cells assessed as upregulation of ACC phosphorylation at Ser-79 residue at 0.2 mM after 30 mins by Western blot assay
T1 sequence (whole entry): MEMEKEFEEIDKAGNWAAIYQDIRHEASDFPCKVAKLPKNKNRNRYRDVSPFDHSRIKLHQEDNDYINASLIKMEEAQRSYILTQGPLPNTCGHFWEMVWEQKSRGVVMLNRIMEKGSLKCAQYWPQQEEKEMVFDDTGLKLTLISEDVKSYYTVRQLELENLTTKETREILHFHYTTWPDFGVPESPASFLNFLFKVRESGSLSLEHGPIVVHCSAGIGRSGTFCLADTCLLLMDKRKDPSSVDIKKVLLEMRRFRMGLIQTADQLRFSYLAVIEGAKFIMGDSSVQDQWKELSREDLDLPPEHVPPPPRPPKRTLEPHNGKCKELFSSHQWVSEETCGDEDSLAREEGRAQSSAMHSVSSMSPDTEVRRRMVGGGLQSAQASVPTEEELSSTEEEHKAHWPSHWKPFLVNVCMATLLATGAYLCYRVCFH

[2] = tested on: C2C12; test: Cytotoxicity against mouse C2C12 cells assessed as reduction in cell viability at 20 uM after 24 hrs by MTT assay; format: cell-based; conditions: c2c12, 24 h
[3] = target: T1, Tyrosine-protein phosphatase non-receptor type 1 (Mus musculus); test: Inhibition of PTP1B in differentiated mouse C2C12 cells assessed as upregulation of AMPKalpha phosphorylation at Thr-172 residue at 20 uM after 3 hrs by Western blot assay
[4] = target: T1, Tyrosine-protein phosphatase non-receptor type 1 (Mus musculus); test: Inhibition of PTP1B in differentiated mouse C2C12 cells assessed as upregulation of ACC phosphorylation at Ser-79 residue at 20 uM after 30 mins by Western blot assay
[5] = target: T1, Tyrosine-protein phosphatase non-receptor type 1 (Mus musculus); test: Inhibition of PTP1B in differentiated mouse 3T3L1 cells assessed as increase in glucose uptake at 20 uM after 1 hr by […] staining based fluorescence microscopic assay
[6] = target: T2, Tyrosine-protein phosphatase non-receptor type 1 (Homo sapiens, UniProt P18031); test: Inhibition of recombinant human PTP1B using pNPP as substrate after 30 mins
T2 sequence (P18031 whole entry): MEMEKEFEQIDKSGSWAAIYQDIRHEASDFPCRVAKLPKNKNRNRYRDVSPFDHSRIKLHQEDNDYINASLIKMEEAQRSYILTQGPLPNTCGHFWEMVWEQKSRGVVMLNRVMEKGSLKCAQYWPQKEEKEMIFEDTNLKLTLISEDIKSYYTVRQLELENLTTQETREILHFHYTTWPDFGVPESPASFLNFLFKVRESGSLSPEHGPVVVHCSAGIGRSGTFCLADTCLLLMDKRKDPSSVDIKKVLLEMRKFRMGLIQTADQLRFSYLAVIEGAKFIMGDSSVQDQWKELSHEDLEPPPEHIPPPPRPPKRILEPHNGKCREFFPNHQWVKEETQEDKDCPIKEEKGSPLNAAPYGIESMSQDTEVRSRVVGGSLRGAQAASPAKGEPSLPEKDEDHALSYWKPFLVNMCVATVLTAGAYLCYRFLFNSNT

[7] = target: T1, Tyrosine-protein phosphatase non-receptor type 1 (Mus musculus); test: Inhibition of PTP1B in differentiated mouse 3T3L1 cells assessed as increase in glucose uptake at 5 to 20 uM after 1 hr by 2-NBDG staining based fluorescence assay
[8] = target: Mitogen-activated protein kinase 1 and 3 (ERK2 and ERK1) (Mus musculus) (UniProt P63085+Q63844); test: Upregulation of ERK1/2 phosphorylation at p44 residue in differentiated mouse C2C12 cells at 10 to 20 uM preincubated for 2 hrs followed by insulin addition measured after 15 mins by Western blot assay
Sequence of Mitogen-activated protein kinase 1 and 3 (ERK2 and ERK1) (Mus musculus) (P63085 whole entry, looked up): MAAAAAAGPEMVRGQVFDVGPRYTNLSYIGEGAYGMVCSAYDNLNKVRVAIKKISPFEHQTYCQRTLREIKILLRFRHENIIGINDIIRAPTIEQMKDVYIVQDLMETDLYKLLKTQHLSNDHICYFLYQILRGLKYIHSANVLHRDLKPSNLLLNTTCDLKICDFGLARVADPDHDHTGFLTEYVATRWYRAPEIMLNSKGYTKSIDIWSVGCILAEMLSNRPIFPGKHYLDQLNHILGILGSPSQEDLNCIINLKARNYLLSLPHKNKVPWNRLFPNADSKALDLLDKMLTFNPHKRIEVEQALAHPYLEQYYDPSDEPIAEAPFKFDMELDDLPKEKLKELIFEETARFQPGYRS
Sequence of Mitogen-activated protein kinase 1 and 3 (ERK2 and ERK1) (Mus musculus) (Q63844 whole entry, looked up): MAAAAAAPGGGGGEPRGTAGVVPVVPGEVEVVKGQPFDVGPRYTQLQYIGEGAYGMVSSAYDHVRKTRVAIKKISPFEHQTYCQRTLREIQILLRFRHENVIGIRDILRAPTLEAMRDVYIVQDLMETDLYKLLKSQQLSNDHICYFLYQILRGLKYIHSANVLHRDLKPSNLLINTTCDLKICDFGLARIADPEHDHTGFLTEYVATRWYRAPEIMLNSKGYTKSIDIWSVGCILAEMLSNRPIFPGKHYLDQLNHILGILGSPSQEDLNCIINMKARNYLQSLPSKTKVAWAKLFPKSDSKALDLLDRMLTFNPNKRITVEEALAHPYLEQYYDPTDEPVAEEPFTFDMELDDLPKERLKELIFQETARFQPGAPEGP

SMILES	inhibition [1]	Activity [2]	inhibition [3]	inhibition [4]	inhibition [5]	IC50 [6] [µM]	inhibition [7]	Activity [8]
NC(=O)c1ncn([C@@H]2O[C@H](CO)[C@@H](O)[C@H]2O)c1N	Active							
C=C1CC/C=C(\COC(C)=O)CC[C@@H](C(C)C)[C@@H](O)[C@@H]1O		Non-Toxic	inactive	Active	Active	7.3	Active	Active
C=C(C)C1=CC[C@@]2(C)[C@H]1[C@H]1CC[C@@H]3[C@@]4(C)CC[C@H](OC(=O)CCCCCCCCCCCCCCC)C(C)(C)[C@@H]4CC[C@@]3(C)[C@]1(C)C[C@@H]2O		Non-Toxic			Active	23.6	Active	
CC1(C)[C@@H]2CC(=O)[C@@]1(C)C[C@@H]2O						17.6		
CC1(C)C[C@@H]2C[C@](C)(O)C(=O)C=C1O2						27		
